The record followed here is patent US20090131468A1, “Bis-(Sulfonylamino) Derivatives in Therapy 065” (AstraZeneca AB, priority 2007, published 2009).

In this test the target is T1, human mPGES-1 (Homo sapiens, UniProt O14684).
T1 sequence (O14684 1-152): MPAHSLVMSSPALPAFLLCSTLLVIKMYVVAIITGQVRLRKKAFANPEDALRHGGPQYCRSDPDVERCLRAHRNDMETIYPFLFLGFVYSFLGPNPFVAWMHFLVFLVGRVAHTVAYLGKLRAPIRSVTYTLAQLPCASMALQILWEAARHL
Kind of test: Microsomal prostaglandin E synthase biochemical assay. The conditions noted are these: microsome preparation containing human mPGES-1; PGH2 10.8 μM, GSH 2.5 mM, pH 6.8; PGE2 quantified by HTRF; average of at least n=2. In short, it runs like this:
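Human mPGES-1 microsomes (from IL-1β-stimulated A549 cells or Sf9 cells expressing human mPGES-1) were pre-incubated 15 min with compound in potassium phosphate buffer pH 6.8 with GSH. PGH2 was then added, and the reaction was stopped after one minute with acidic ferric chloride/citrate. PGE2 was read by HTRF, and IC50 was taken from control-normalised activity.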
(In general: Time-resolved FRET reads energy transfer from a long-lived donor to a nearby acceptor.)

`CC(C)Oc1cc(C(=O)NS(=O)(=O)c2ccccc2S(N)(=O)=O)ccc1C#CC(C)(C)C` [Example 128, 4-(3,3-Dimethylbut-1-ynyl)-3-isopropoxy-N-(2-sulfamoylphenylsulfonyl)benzamide]: the midpoint of inhibition, the IC50, lay at 0.045 µM. In other words, the double-digit nanomolar range. As for `CC(C)Oc1cc(C(=O)NS(=O)(=O)c2ccccc2S(N)(=O)=O)ccc1C#CC(C)(C)O` [Example 129, 4-(3-Hydroxy-3-methylbut-1-ynyl)-3-isopropoxy-N-(2-sulfamoylphenylsulfonyl)-benzamide], the figure is 7 µM. Next, `CC(C)Oc1cc(C(=O)NS(=O)(=O)c2ccccc2S(N)(=O)=O)ccc1C#CC1CCCC1` [Example 130, 4-(Cyclopentylethynyl)-3-isopropoxy-N-(2-sulfamoylphenylsulfonyl)benzamide]: 0.02 µM; `CC(C)Oc1cc(C(=O)NS(=O)(=O)c2ccccc2S(N)(=O)=O)ccc1C#CC1CCCCC1` [Example 131, 4-(Cyclohexylethynyl)-3-isopropoxy-N-(2-sulfamoylphenylsulfonyl)benzamide]: 0.014 µM. With `CC(C)Oc1cc(C(=O)NS(=O)(=O)c2ccccc2S(N)(=O)=O)ccc1C#CC1CC1` [Example 132, 4-(Cyclopropylethynyl)-3-isopropoxy-N-(2-sulfamoylphenylsulfonyl)benzamide], the IC50 (as a rule, the concentration at which inhibition is half-maximal) was found to be 0.11 µM. This IC50 lies about 7.9-fold higher than the previous one. Next, `CC(C)Oc1cc(C(=O)NS(=O)(=O)c2ccccc2S(N)(=O)=O)ccc1C#CC1(O)CCCCCC1` [Example 133, 4-((1-Hydroxycycloheptyl)ethynyl)-3-isopropoxy-N-(2-sulfamoylphenylsulfonyl)-benzamide]: 0.56 µM; `COCCOCCOc1cc(C(=O)NS(=O)(=O)c2ccccc2S(N)(=O)=O)cnc1C#CC(C)(C)C` [Example 134, 6-(3,3-Dimethylbut-1-ynyl)-5-(2-(2-methoxyethoxy)ethoxy)-N-(2-sulfamoylphenyl-sulfonyl)nicotinamide]: 0.18 µM; `COCCOCCOc1cc(C(=O)NS(=O)(=O)c2ccccc2S(N)(=O)=O)cnc1-c1cc2ccccc2o1` [Example 135, 6-(Benzofuran-2-yl)-5-(2-(2-methoxyethoxy)ethoxy)-N-(2-sulfamoylphenylsulfonyl)-nicotinamide]: 0.081 µM. As for `COCCOCCOc1cc(C(=O)NS(=O)(=O)c2ccccc2S(N)(=O)=O)cnc1C#CC1CCCC1` [Example 136, 6-(Cyclopentylethynyl)-5-(2-(2-methoxyethoxy)ethoxy)-N-(2-sulfamoylphenyl-sulfonyl)nicotinamide], the figure is 0.065 µM. As for `COc1cc(C(=O)NS(=O)(=O)c2ccccc2S(N)(=O)=O)cnc1C#CC1CCCC1` [Example 137, 6-(Cyclopentylethynyl)-5-methoxy-N-(2-sulfamoylphenylsulfonyl)nicotinamide], the figure is 0.02 µM. For `COc1cc(C(=O)NS(=O)(=O)c2ccccc2S(N)(=O)=O)cnc1C#CC1CCCCC1` [Example 138, 6-(Cyclohexylethynyl)-5-methoxy-N-(2-sulfamoylphenylsulfonyl)nicotinamide], the IC50 was 0.012 µM. As for `COc1cc(C(=O)NS(=O)(=O)c2ccccc2S(N)(=O)=O)cnc1C#Cc1ccc(C(F)(F)F)cc1` [Example 139, 5-Methoxy-N-(2-sulfamoylphenylsulfonyl)-6-((4-(trifluoromethyl)phenyl)-ethynyl)nicotinamide], the figure is 0.0068 µM; as for `NS(=O)(=O)c1ccccc1S(=O)(=O)NC(=O)c1ccc2[nH]c(-c3ccccc3)cc2c1` [Example 140], 0.14 µM.

The compound `COCCn1c(-c2ccccc2)cc2cc(C(=O)NS(=O)(=O)c3ccccc3S(N)(=O)=O)ccc21` [Example 141, 1-(2-Methoxyethyl)-2-phenyl-N-(2-sulfamoylphenylsulfonyl)-1H-indole-5-carboxamide] had an IC50 of 0.3 µM. As for `CC(C)Oc1cc(C(=O)NS(=O)(=O)c2ccccc2S(N)(=O)=O)cnc1C#CC1CC1` [Example 142, 6-(cyclopropylethynyl)-5-isopropoxy-N-(2-sulfamoylphenylsulfonyl)nicotinamide], the figure is 0.049 µM.
